Values of other authors in patent US20100093849A1, “OXALIPLATIN PHARMACEUTICAL COMPOSITION WITH ALCOHOLIC SUGAR-BASED BUFFER” (priority 2007, published 2010).
Values joined by “and” are separate entries in the source; they are usually repeats but may differ in a detail not shown here. Equal entries are not always repeated.

Columns and labels:
[1] = Merck Index

second dissociation constant, pKa [1] | SMILES | solubility in water (at 37° C.) | solubility in ether and ethanol (ether and ethanol) | highest concentrations of oxaliplatinum achieved (solvent of the same volumes of 1,2-propanediol and water (WO0115691))
4.28 | O=C(O)C(=O)O [Oxalic acid] |  |  | 
 | O=C1[O][Pt]2([NH][C@@H]3CCCC[C@H]3[NH]2)[O]C1=O [Oxaliplatinum, {trans-(1R,2R)-1,2-cyclohexane-diamine}-(oxalato)platinum(II) complex] | about 8 mg/ml | practically insoluble | 14.01 mg/mL and 14.33 mg/mL
